In patent US8883778B2, “Cyclic inhibitors of 11 beta-hydroxysteroid dehydrogenase 1” (Vitae Pharmaceuticals, Inc., priority 2009, dated 2014):

Experiments:
11β-HSD1 [1] = biological target: T1, 11β-HSD1 (Homo sapiens, UniProt P28845); assay: Inhibition of a microsomal preparation of 11β-HSD1, scintillation proximity assay; format: biochemical; set-up: expressed in transfected cells; host or cells: CHO cells (microsomes); conditions: microsomes from CHO cells overexpressing human 11β-HSD1; for inhibition at 0.1 µM: at 100 nM
T1 sequence (P28845 whole entry): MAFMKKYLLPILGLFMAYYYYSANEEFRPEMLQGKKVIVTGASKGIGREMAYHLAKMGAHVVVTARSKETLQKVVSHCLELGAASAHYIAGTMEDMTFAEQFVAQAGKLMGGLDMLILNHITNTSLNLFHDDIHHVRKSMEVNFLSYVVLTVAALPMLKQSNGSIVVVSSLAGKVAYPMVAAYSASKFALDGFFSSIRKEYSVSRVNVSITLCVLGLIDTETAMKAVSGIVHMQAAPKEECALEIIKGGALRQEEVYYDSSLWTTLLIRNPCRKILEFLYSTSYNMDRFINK
Procedure: All reactions were carried out at rt in 96 well clear flexible PET Microbeta plates (PerkinElmer). […] After a 10 minute pre-incubation, 50 μL of enzyme solution containing microsomes isolated from CHO cells overexpressing human 11β-HSD1 (10-20 μg/ml of total protein) was added, and the plates were incubated for 90 minutes at rt. The reaction was stopped by adding 50 μl of the SPA beads suspension containing 10 μM 18β-glycyrrhetinic acid, 5 mg/ml protein A coated YSi SPA beads (GE Healthcare) and 3.3 μg/ml of anti-cortisol antibody (East Coast Biologics) in Superblock buffer (Bio-Rad). The plates were shaken for 120 minutes at rt, and the SPA signal corresponding to [^3H]cortisol was measured on a Microbeta plate reader.

11β-HSD1 [2] = biological target: T1, 11β-HSD1; assay: In vitro inhibition of 11β-HSD1 with HTRF technology, cortisol generated by human liver microsomes; format: biochemical; set-up: detecting cortisol generated from cortisterone by human liver microsomes; from tissue; host or cells: human liver microsomes; conditions: 1 hour at 37° C., cortisone 80 nM
Procedure: Briefly, compounds were incubated for 1 hour at 37° C. in Tris buffer (20 mM tris, 5 mM EDTA, pH 6.0) containing NADPH (200 μM) and cortisone (80 nM). Cortisol generated in the reaction is then detected with a competitive immunoassay, involving two HTRF conjugates: cortisol linked to XL665 and anti-cortisol antibody labeled with Europium cryptate. The incubation period for detection reaction was typically 2 hours. The amount of cortisol was determined by reading the time-resolved fluorescence of the wells (Ex 320/75 nm; Em 615/8.5 nm and 665/7.5 nm). The ratio of the two emission signals was then calculated (Em665*10000/Em615). […] Each assay also contained a calibration curve with cortisol to transform the fluorescent data into cortisol concentrations. Percent inhibition of each compound was determined relative to the carbenoxolone signal.

Structure (SMILES)	inhibition at 0.1 µM (11β-HSD1 [1]) [%]	IC50 (11β-HSD1 [1]) [nM]	IC50 (11β-HSD1 [2]) [nM]
C[C@@H](c1ccc(C#CC(C)(C)C(=O)O)cc1)N1CC[C@](CC(C)(C)O)(c2ccccc2)OC1=O [Example 4, 4-(4-((S)-1-((S)-6-(2-hydroxy-2-methylpropyl)-2-oxo-6-phenyl-1,3-oxazinan-3-yl)ethyl)phenyl)-2,2-dimethylbut-3-ynoic acid]	86	13.4	
C[C@@H](c1ccc(C#CC(C)(C)NC(=O)C2CC2)cc1)N1CC[C@](CC(C)(C)O)(c2ccccc2)OC1=O [Example 8, N-(4-(4-((S)-1-((S)-6-(2-hydroxy-2-methylpropyl)-2-oxo-6-phenyl-1,3-oxazinan-3-yl)ethyl)phenyl)-2-methylbut-3-yn-2-yl)cyclopropanecarboxamide]	92.2	7.5	
C[C@@H](c1ccc(C#Cc2ccn(C)c(=O)c2)cc1)N1CC[C@](CC(C)(C)O)(c2ccccc2)OC1=O [Example 30, (S)-6-(2-Hydroxy-2-methyl-propyl)-3-{(S)-1-[4-(1-methyl-2-oxo-1,2-dihydro-pyridin-4-ylethynyl)-phenyl]ethyl}-6-phenyl-[1,3]oxazinan-2-one]			29
C[C@@H](c1ccc(C#Cc2ccc(=O)n(C)c2)cc1)N1CC[C@](CC(C)(C)O)(c2ccccc2)OC1=O [Example 31, (S)-6-(2-Hydroxy-2-methyl-propyl)-3-{(S)-1-[4-(1-methyl-6-oxo-1,6-dihydro-pyridin-3-ylethynyl)-phenyl]ethyl}-6-phenyl-[1,3]oxazinan-2-one]			30
CC(=O)N1CC(O)(C#Cc2ccc([C@H](C)N3CC[C@](CC(C)(C)O)(c4ccccc4)OC3=O)cc2)C1 [Example 25, (S)-3-((S)-1-(4-((1-acetyl-3-hydroxyazetidin-3-yl)ethynyl)phenyl)ethyl)-6-(2-hydroxy-2-methylpropyl)-6-phenyl-1,3-oxazinan-2-one]	94.1	3.6	
C[C@@H](c1ccc(C#CC2(O)CCN(C)CC2)cc1)N1CC[C@](CC(C)(C)O)(c2ccccc2)OC1=O [Example 11, (S)-3-((S)-1-(4-((4-hydroxy-1-methylpiperidin-4-yl)ethynyl)phenyl)ethyl)-6-(2-hydroxy-2-methylpropyl)-6-phenyl-1,3-oxazinan-2-one]	50.5	86.3	

Further lines, results first:

inhibition at 0.1 µM (11β-HSD1 [1]) [%]	IC50 (11β-HSD1 [1]) [nM]	IC50 (11β-HSD1 [2]) [nM]	Structure (SMILES)
95.8	2.4		COC(=O)OC1(C#Cc2ccc([C@H](C)N3CC[C@](CC(C)(C)O)(c4ccccc4)OC3=O)cc2)CN(C(=O)OC)C1 [Example 27, Methyl 3-((4-((S)-1-((S)-6-(2-hydroxy-2-methylpropyl)-2-oxo-6-phenyl-1,3-oxazinan-3-yl)ethyl)phenyl)ethynyl)-3-(methoxycarbonyloxy)azetidine-1-carboxylate]
95.6	3.1		C[C@@H](c1ccc(C#CC2(NC(N)=O)CCCCC2)cc1)N1CC[C@](CC(C)(C)O)(c2ccccc2)OC1=O [Example 16, 1-(1-((4-((S)-1-((S)-6-(2-hydroxy-2-methylpropyl)-2-oxo-6-phenyl-1,3-oxazinan-3-yl)ethyl)phenyl)ethynyl)cyclohexyl)urea]
103	1.7		COc1cc(C#Cc2ccc([C@H](C)N3CC[C@](CC(C)(C)O)(c4ccccc4)OC3=O)cc2)ccn1 [Example 28, (S)-6-(2-hydroxy-2-methylpropyl)-3-((S)-1-(4-((2-methoxypyridin-4-yl)ethynyl)phenyl)ethyl)-6-phenyl-1,3-oxazinan-2-one]
97	1.1		C[C@@H](c1ccc(C#CC(C)(C)C(=O)N(C)C)cc1)N1CC[C@](CC(C)(C)O)(c2ccccc2)OC1=O [Example 5, 4-(4-((S)-1-((S)-6-(2-hydroxy-2-methylpropyl)-2-oxo-6-phenyl-1,3-oxazinan-3-yl)ethyl)phenyl)-N,N,2,2-tetramethylbut-3-ynamide]
